The text below walks through data of publication PMC11882969 (Nature Communications, 2025).

What is called Ki is the dissociation constant of the complex between target and ligand, obtained from inhibition or displacement.

Assay [1] deals with T1, CB1 (rCB1) (Rattus norvegicus, UniProt P20272). Description: Radioligand competition binding, [3H]-CP-55,940, rat brain membranes. To be noted: for pKi [95% CI]: rCB1; for Ki: read-out: Ki [95% CI], rCB1, [3H]-CP-55,940. (Loss of bound radioactivity is the signal in a displacement assay; it reports binding, not function.)
T1 sequence (P20272 whole entry): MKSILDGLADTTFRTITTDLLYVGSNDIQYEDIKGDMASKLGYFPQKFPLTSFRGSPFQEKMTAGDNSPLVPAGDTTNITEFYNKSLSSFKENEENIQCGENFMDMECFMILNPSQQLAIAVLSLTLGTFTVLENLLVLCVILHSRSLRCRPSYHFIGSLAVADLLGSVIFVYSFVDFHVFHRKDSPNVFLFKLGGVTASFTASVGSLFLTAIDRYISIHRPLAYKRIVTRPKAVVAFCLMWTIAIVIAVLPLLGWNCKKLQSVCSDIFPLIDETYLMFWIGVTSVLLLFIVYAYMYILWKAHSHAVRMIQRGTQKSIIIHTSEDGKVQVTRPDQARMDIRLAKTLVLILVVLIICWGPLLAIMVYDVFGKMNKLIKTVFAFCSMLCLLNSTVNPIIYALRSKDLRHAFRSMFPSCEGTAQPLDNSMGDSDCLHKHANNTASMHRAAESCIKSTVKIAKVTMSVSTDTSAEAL
Assay [2] addresses T1, CB1 (rCB1). Description: Single-point radioligand displacement screen. The assay is classed as binding. The note with it: for % 1H-CP-55,940 displacement (mean) from single point screen: 10 µM, 1 µM or 300 nM by cell colour (not visible); for rep1_displacement / rep2_displacement / rep3_displacement: Figure 1c source data; for rep1_displacement: replicate 1; for rep2_displacement: replicate 2; for rep3_displacement: replicate 3.

Take `COC(=O)[C@@H](c1cccs1)N(C)C(=O)c1cc(C)n(-c2cccc(C(F)(F)F)c2)n1` [‘6000]: on CB1 (rCB1) [1], the “pKi [95% CI]” value is 5.8 [5.7 – 6.0] and the Ki stood at 1.46 µM.
The corresponding values for `CC(=O)C(C)(NC(=O)c1cc(C)n(-c2cccc(C(F)(F)F)c2)n1)c1cccs1` (stereo not drawn) [‘4156] are 7.9 [7.5 – 8.2] and 0.0135 µM.
The corresponding values for `COC(=O)[C@H](c1cccs1)N(C)C(=O)c1cc(C)n(-c2cccc(C(F)(F)F)c2)n1` [‘1066] are 5.8 [5.4 – 6.1] and 1.72 µM.
On to `COC(=O)C(NC(=O)c1cc(-c2ccccc2)n(-c2cccc(C(F)(F)F)c2)n1)c1cccs1` (stereo not drawn) [‘8079], for which, at CB1 (rCB1) [1], the “pKi [95% CI]” value is 7.7 [7.6 – 7.9] and the Ki was determined as 0.0185 µM.
The corresponding values for `COC(=O)C(c1ccco1)N(C)C(=O)c1cc(C)n(-c2cccc(C(F)(F)F)c2)n1` (stereo not drawn) [‘6425] are 6.0 [5.8 – 6.2] and 0.934 µM.
Turning to `Cc1cc(C(=O)NC(C)(c2ccccc2)c2ccco2)nn1-c1cccc(C(F)(F)F)c1` (stereo not drawn) [‘5806], on CB1 (rCB1) [1], the “pKi [95% CI]” value is 8.1 [7.7 – 8.5]. For the same compound, the “fold improvement in CB1R affinity” value on CB1 (rCB1) [1] (vs parent hit or analog without the change) was approximately 15 fold.
On to `Cc1c(C(=O)OCc2nc3ccccc3o2)cnn1Cc1ccccc1` [compound 8354], for which the “% 1H-CP-55,940 displacement (mean) from single point screen” value (shortened to “% 1H-CP-55,940 displacement (mean)”) on CB1 (rCB1) [2] stood at 59.03%.
Consider `COC(=O)c1cc(C(=O)N2CCc3ccc(Cl)cc3C2)cc([N+](=O)[O-])c1` [compound 25719], for which, on CB1 (rCB1) [2], the “% 1H-CP-55,940 displacement (mean)” value is 24.96%, the rep1_displacement amounted to 30.1, the rep2_displacement is 24.6 and the rep3_displacement is 20.2.
As for `COC(=O)[C@H]1Cc2ccccc2CN1C(=O)c1cc(C)n(-c2cccc(F)c2)n1` [compound 76400], the “% 1H-CP-55,940 displacement (mean)” value at CB1 (rCB1) [2] is listed as -1.48%.
Take `CCc1nc(C(=O)NC(c2ccccc2)c2cccnc2)nn1-c1ccccc1Cl` (stereo not drawn) [compound 00051]: at CB1 (rCB1) [2], the “% 1H-CP-55,940 displacement (mean)” value came to 16.02%, the rep1_displacement is 20.4, the rep2_displacement stood at 19.7 and the rep3_displacement was 7.9.
The corresponding values for `O=C1CN(C(=O)c2ccc(Cl)c3cccnc23)CN1Cc1ccccc1` [compound 14861] are 15.10%, 15, 15.3 and 15.
`Cc1cc(C(=O)NC(CCO)Cc2ccccc2)nn1-c1ccc(F)cc1` (stereo not drawn) [compound 15032]: the “% 1H-CP-55,940 displacement (mean)” value at CB1 (rCB1) [2] is -0.53%.
Turning to `Cc1c(C(=O)OCC2COc3ccccc3O2)cnn1Cc1ccccc1` (stereo not drawn) [compound 32445], at CB1 (rCB1) [2], the “% 1H-CP-55,940 displacement (mean)” value came out at 35.36%.
`Cc1c(C(=O)OCC2CSc3ccccc3O2)cnn1-c1ccccc1` (stereo not drawn) [compound 3189]: at CB1 (rCB1) [2], the “% 1H-CP-55,940 displacement (mean)” value came to 46.85%.
Regarding `O=C(OCc1nc2ccccc2o1)c1cnn(Cc2ccccc2Cl)c1` [compound 3652], the “% 1H-CP-55,940 displacement (mean)” value on CB1 (rCB1) [2] amounted to 32.00%.
For the compound `COC1CCn2cc(C(=O)NCC(Cc3ccccc3)c3ccccc3)nc2C1` (stereo not drawn) [compound 96198], on CB1 (rCB1) [2], the “% 1H-CP-55,940 displacement (mean)” value is 18.71%, the rep1_displacement was 19.2, the rep2_displacement is 20.5 and the rep3_displacement is 16.4.
Take `CN(CCOc1ccc(Br)cc1)c1ncnc(-c2ccccc2)n1` [compound 55901]: at CB1 (rCB1) [2], the “% 1H-CP-55,940 displacement (mean)” value amounted to 23.61%, the rep1_displacement stood at 24.5, the rep2_displacement is 26.2 and the rep3_displacement is listed as 20.1.
With `C[C@@H](COC(=O)c1nn(C)c(=O)c2ccccc12)Oc1ccc(Cl)cc1` [0450_14], at CB1 (rCB1) [2], the “% 1H-CP-55,940 displacement (mean)” value is on record as 28.77%.
The same measure, in the same setting: then `COC(=O)C(NC(=O)c1cc(C)n(-c2cccc(Cl)c2)n1)c1ccc(C(F)(F)F)cc1` (stereo not drawn) [compound 14083], with 24.29%.
Same read-out and setting: then `CCOC(=O)C(NC(=O)c1cc(C)n(-c2cccc(F)c2)n1)C1CCOCC1` (stereo not drawn) [compound 64854], with -2.51%; and `Cc1nn(CC2CC2)c(C)c1Cc1nc(Cc2ccc3c(c2)OCO3)no1` [7019_28], with 36.27%.
For the compound `Cc1cc(C(=O)Nc2ccnn2-c2cccc(Cl)c2)nn1[C@H](C)C1CC1` [‘7902], at CB1 (rCB1) [2], the “% 1H-CP-55,940 displacement (mean)” value is recorded as 57.08%, the rep1_displacement was determined as 57, the rep2_displacement is 57.3 and the rep3_displacement is 57. Besides, the “% radioligand displacement [S.D]” value at CB1 (rCB1) [2] (single point at 10 µM, three replicates) is 57.1% [0.02].
Regarding `O=C(OCc1ncnn1-c1ccccc1)c1csc(Cc2ccccc2F)n1` [compound 67565], at CB1 (rCB1) [2], the “% 1H-CP-55,940 displacement (mean)” value came out at 8.02%, the rep1_displacement is listed as 8 and the rep3_displacement is listed as 8.
With `Cc1cc(C(=O)N2CC3(CCC3)C2c2ccco2)nn1-c1cccc(C(F)(F)F)c1` (stereo not drawn) [10_10], the “% 1H-CP-55,940 displacement (mean)” value on CB1 (rCB1) [2] was 94.41%.
As for `O=c1c2cnn(-c3ccccc3)c2nnn1Cc1cc(Cl)ccc1Cl` [compound 59552], on CB1 (rCB1) [2], the “% 1H-CP-55,940 displacement (mean)” value was determined as 38.03%, the rep1_displacement amounted to 36.6, the rep2_displacement is reported as 38.4 and the rep3_displacement is 39.1.
The corresponding values for `CCOC(=O)CCC(OC(=O)c1nc(C)n(-c2ccccc2)n1)c1ccccc1` (stereo not drawn) [compound 11070] are 34.00%, 33.8, 28.7 and 39.6.
In the case of `CCCCCCC(C)(C)c1cc(O)c2c(c1)OC(C)(C)C1CCC(=O)CC21` (stereo not drawn) [Nabilone, reference compound], on CB1 (rCB1) [1], the “pKi [95% CI]” value was 8.6 [8.4 – 8.9] and the Ki came out at 0.0023 µM.
Turning to `COC(=O)C(NC(=O)c1coc(C2CCOCC2)n1)c1cccs1` (stereo not drawn) [compound 19213], the “% 1H-CP-55,940 displacement (mean)” value at CB1 (rCB1) [2] turned out to be 1.83%.
Same read-out and setting: next, `Cn1nc(-c2nnc(CCOc3ccc(Cl)cc3)o2)c2ccccc2c1=O` [0450_24]: 12.07%.
Still for that read-out and setting: next, `COC(=O)C(NC(=O)c1cn(Cc2ccccc2)nn1)c1cccs1` (stereo not drawn) [compound 54064]: 4.29%.
Same read-out and setting: next, `Cc1cc(C(=O)NC(c2ccccc2)c2ccco2)nn1-c1cccc(F)c1` (stereo not drawn) [compound 88684]: 39.72%.
As for `Cc1nn(Cc2ccccc2Cl)c(C)c1C(=O)OCC1CSc2ccccc2O1` (stereo not drawn) [7800_28], the “% 1H-CP-55,940 displacement (mean)” value on CB1 (rCB1) [2] is reported as 55.46%.
Consider `O=C1CN(C(=O)c2cc3cc(Br)ccc3o2)CN1Cc1ccccc1` [compound 46675], for which, on CB1 (rCB1) [2], the “% 1H-CP-55,940 displacement (mean)” value came out at 22.64% and the rep1_displacement was found to be 22.6.
As to `N#Cc1cccc(-n2ccc(C(=O)OCC3CSc4ccccc4O3)n2)c1` (stereo not drawn) [compound 2666], the “% 1H-CP-55,940 displacement (mean)” value on CB1 (rCB1) [2] is 30.46%.
As to `O=C(c1ccccc1CS(=O)(=O)c1ccccc1)N1CCC(c2cccc(F)c2)C1` (stereo not drawn) [compound 41949], on CB1 (rCB1) [2], the “% 1H-CP-55,940 displacement (mean)” value is 33.74%, the rep1_displacement was 30, the rep2_displacement worked out at 36.7 and the rep3_displacement came to 34.6.
`Cn1nc(Cc2nnc(C(C)(C)Oc3ccc(Cl)cc3)o2)c2ccccc2c1=O` [0450_25]: the “% 1H-CP-55,940 displacement (mean)” value on CB1 (rCB1) [2] is on record as -12.39%.
As for `O=C(OCc1nc2ccccc2s1)c1c2c(nc3ccccc13)CCC2` [compound 47700], at CB1 (rCB1) [2], the “% 1H-CP-55,940 displacement (mean)” value was 27.24%, the rep1_displacement stood at 29.5, the rep2_displacement was determined as 33.4 and the rep3_displacement is on record as 18.9.
Consider `CCCCCCC1(c2cc(O)c3c(c2)OC(C)(C)[C@@H]2CC[C@@H](O)C[C@@H]32)CCC1` [AM2389, reference compound], for which, on CB1 (rCB1) [2], the rep1_displacement was 99.9, the rep2_displacement is on record as 99.9 and the rep3_displacement was 99.8.
For `Cc1nc(CC2CC2)oc1-c1nc(Cc2ccc3c(c2)OCCCO3)no1` [7019_1], the “% 1H-CP-55,940 displacement (mean)” value on CB1 (rCB1) [2] is reported as 6.40%.
As to `N#CCCn1ncc(C(=O)N2CCC(F)(c3cc(F)cc(F)c3)C2)c1-c1ccccc1` (stereo not drawn) [compound 34734], at CB1 (rCB1) [2], the “% 1H-CP-55,940 displacement (mean)” value is 15.43%, the rep1_displacement came out at 21.6, the rep2_displacement came out at 10.3 and the rep3_displacement came out at 14.4.
Regarding `Cc1nc(CC2CC2)oc1-c1nc(Cc2ccc3c(c2)OCO3)no1` [compound 97058], at CB1 (rCB1) [2], the “% 1H-CP-55,940 displacement (mean)” value is listed as 17.45%.
